Data reported in US20070066638A1, “RYANODINE RECEPTOR BLOCKERS FOR TREATING PAIN” (priority 2005, published 2007).
Marks after values point to notes of the source that are not given here.

Assays:
[1] = test system: rats with ligated L5 and L6 spinal nerves; assay: Spinal nerve (L5/L6) ligation model of chronic pain, tactile allodynia by von Frey hairs; format: in vivo, rat; details: compared to a saline solution, 30 minutes after drug administration
[2] = test system: sulprostone-induced allodynia in mice; assay: Sulprostone model of transient allodynia; format: in vivo
Experimental: (§1) In mice, it is possible to induce transient allodynia by treating mice with chemical sensitizers. An interperitoneal injection (of a 1 ml/kg volume) of phenylephrine (an alphal receptor agonist) or sulprostone (a EP1 and EP3 prostaglandin receptor agonist) will induce transient allodynia. Alternatively, an intrathecal injection of NMDA (in a 5 ul volume) will also induce transient allodynia. The injected mice are assessed for allodynia once every 5 minutes over a 15-50 min period post injection by light stroking of the flank with a paintbrush. The allodynia response was ranked as follows: 0. No response; 1, mild squeaking with attempts to move away from the paintbrush; 2, vigorous squeaking, biting at the paintbrush and strong efforts to escape. Data is expressed as the average total score for each group. (Each animal can have a maximum score of 16 over the 50-min period.) * indicates significant difference (P<0.05) relative to sulprostone, NMDA or phenylephrine-treated rats.

[3] = test system: phenylephrine-induced allodynia in mice; assay: Phenylephrine model of transient allodynia; format: in vivo; details: maximum score 16
Experimental: as §1

[4] = test system: NMDA-induced allodynia in mice; assay: NMDA model of transient allodynia; format: in vivo; details: maximum score 16
Experimental: as §1

[5] = test system: capsaicin-induced allodynia in Sprague-Dawley rats; assay: Capsaicin model, tactile allodynia (von Frey filament); format: in vivo, rat
Experimental: Intraplantar injection of capsaicin, the active ingredient in red hot chili peppers, will induce neurogenic inflammation and transient allodynia.
Methods/subjects: Eight to ten male Sprague-Dawley rats (Charle Rivers, Sprague-Dawley, 200-300 grams) were used in these experiments. Rats received a unitlateral intradermal injection (10 ul) of capsaicin (0.1%) superficially in the mid-plantar surface of the hind paw. A successful injection was confirmed by the apperance of a bleb after intraplantar capsaicin administartion. Capsaicin, the pungent ingredient in hot peppers, has been used to produce hyperalgesia (mildly painful sensory stimuli are perceived as highly painful) in humans. When applied topically or injected into the skin, capsaicin produces burning pain, hyperalgesia to heat within the immediate vicinity of capsaicin application, and mechanical hyperalgesia within a large sorrounding (Hohmann AG, et al.). On the rat hind paw, there are no major subjective behaviour or clinical observations such as marked redness, limping, chronic licking and swelling associated with this model except for the immediate bleb formation of the given agent on the plantar surface right after the injection and as reported in the literature, short term tactile allodynia, extreme thermal […] which persist for one week.
Allodynia Assessment: Rats were placed in Plexiglas cages positioned over an elevated wire mesh platform and habituated to the testing environment for 15 to 25 min before testing. Tactile allodynia was assessed using a single von frey filament (5.18) with a bending force of 10 grams (Dixon). Tactile allodynia refers to a nocifensive behavior elicited by a light touch or innocuous (here, mechanical) stimulus and was operationally defined as a lowering of the threshold for paw withdrawal from punctate mechanical stimulation (Hohmann AG, et al.). The filaments were positioned in contact with the hind paw for a duration of 5 s or until a withdrawal response occurred and repeated 10 consecutive times. This procedure was repeated three times to obtain a total of thirty responses and then averaged. Contralateral testing was also done; no capsaicin was given. Data are presented as paw withdrawl frequency (%). * indicates significant difference (P<0.05) relative to vehicle-treated rats.

[6] = test system: rats; assay: Rotarod motor performance; format: in vivo, rat; details: fifteen minutes post-dosing, acceleration mode 5-15 RPM, in s (unit assumed)
From the text: The Rotamex® 4/8 Rota-rod is a device to test the motor performance decrement, performance time, partial or complete ataxia, and the motor coordination in laboratory animals. The principle of this system is to measure the time each animal manages to maintain walking on the moving rod. Drugs or conditions that cause muscular relaxation will interfere with this coordination and agility, causing the animal to fall from a safe height to a grid below.
The animals were conditioned before performing the test. Animals were required to pass three stages of conditioning on the Rota-rod prior to inclusion in the experiment. During the first stage of conditioning, animals were required to perch on the stationary rod for 30 seconds to accustom themselves to the environment.
Rats that fail to perch for 30 seconds will fall to the grid below. The fall alone typically serves as an adequate aversive stimulus and the animals learn to stay on the perch.
In the second stage of conditioning, the animals that passed the first stage of conditioning were then allowed to walk at a constant speed of 5-rpm for 90 seconds. Any animal that fell off the rod during this trial were allowed to fall to the grid below. Animals are required to stay on the rod for 90 seconds in three consecutive trials out of six total trials, or else they were excluded from the study.
In the final stage of conditioning, about 10-30 minutes after the last trial for each animal that passed the first two stages of conditioning, the animals were placed back on the rod in groups of four and allowed to run in an acceleration mode with a start speed of 5 rpm and an end speed of 15 rpm for 90 seconds. […] A mean performance time was calculated for all animals that managed to stay on the rotating rod for at least 80 seconds. […] Mean performance times were calculated and used as pre-drug baseline values. […] Fifteen minutes post-dosing, the animals were placed back on the rod and the mean performance time in acceleration mode (5-15 RPM) is measured again. […]

[7] = test system: Sprague-Dawley rats; assay: Activity monitor (locomotor activity); format: in vivo, rat; details: 10 mg/kg intraperitoneal, thirty minutes after injection
Experimental: Locomotor activity of male Sprague-Dawley rats (Charles River, Wilmington, Mass.) weighing approximately 300 grams was measured thirty minutes following intraperitoneal injection of vehicle or test compound. Test animals were placed in a dark chamber and a Digicom analyzer (Omnitech Electronic, Columbus, Ohio), which records the number of interruptions of an array of 32 photoelectric beams in the X and Y orientation, quantitated exploratory behavior during a five-minute period. Horizonal activity (HD) and total distance (TD) are presented, as well as % vehicle values. * indicates significant difference (P<0.05) relative to vehicle-treated rats.

[8] = test system: ryanodine receptor-channel complex; details: See Biochemistry 2001, 40, 531-542; cited from earlier work

SMILES: O=C1CN(N=Cc2ccc(-c3ccc([N+](=O)[O-])cc3)o2)C(=O)N1 [Dantrolene, 1-[[5-(p-Nitrophenyl)furfurylidene]amino]hydantoin]
- reversal of allodynic pain (tactile allodynia) ([1]; i.p. 300 ng/kg): reverses the allodynic pain
- reversal of allodynic pain (tactile allodynia) ([1]; i.p. 3000 ng/kg): reverses the allodynic pain
- reversal of allodynic pain (tactile allodynia) ([1]; i.p. 100 mg/kg): reverses the allodynic pain
- reversal of allodynic pain (tactile allodynia) ([1]; i.p. dose of 100 ng/kg): reverses the allodynic pain
- Mean pain score ([2]; Sulprostone 300 ng/kg + Dantrolene 3 mg/kg, maximum score 16): 12.6 ± 1.5
- Mean pain score ([2]; Sulprostone 300 ng/kg + Dantrolene 10 mg/kg, maximum score 16): 9.5 ± 1.9*
- Mean pain score ([2]; Sulprostone 300 ng/kg + Dantrolene 20 mg/kg, maximum score 16): 4.8 ± 0.9*
- Mean pain score ([3]; PE 100 ng/kg + Dantrolene 3 mg/kg): 9.4 ± 1.6
- Mean pain score ([3]; PE 100 ng/kg + Dantrolene 10 mg/kg): 6.5 ± 1.2*
- Mean pain score ([4]; NMDA 100 ng + Dantrolene 3 mg/kg): 9.3 ± 0.8*
- Mean pain score ([4]; NMDA 100 ng + Dantrolene 10 mg/kg): 7.0 ± 1.0*
- paw withdrawl frequency ([5]; Injected paw, 15 min after capsaicin, dantrolene 3 mg/kg IP 30 minutes before capsaicin): 36 ± 3.7%
- paw withdrawl frequency ([5]; Injected paw, 30 min after capsaicin, dantrolene 3 mg/kg IP 30 minutes before capsaicin): 8 ± 1.7 * %
- paw withdrawl frequency ([5]; Injected paw, 60 min after capsaicin, dantrolene 3 mg/kg IP 30 minutes before capsaicin): 7 ± 2.1%
- paw withdrawl frequency ([5]; Injected paw, Baseline before Caps., dantrolene 3 mg/kg IP): 7 ± 0.9%
- paw withdrawl frequency ([5]; Uninjected paw, 15 min., dantrolene 3 mg/kg IP): 5 ± 1.1%
- paw withdrawl frequency ([5]; Uninjected paw, 30 min., dantrolene 3 mg/kg IP): 2 ± 1.1%
- paw withdrawl frequency ([5]; Uninjected paw, 60 min., dantrolene 3 mg/kg IP): 3 ± 1.3%
- paw withdrawl frequency ([5]; Uninjected paw, Baseline, dantrolene 3 mg/kg IP): 5 ± 1%
- Mean time on bar ([6]; 3 mg/kg IP): 74.33 ± 7.47
- Mean time on bar ([6]; 10 mg/kg IP): 79.67 ± 5.43
- Mean time on bar ([6]; 20 mg/kg IP): 37.67 ± 10.4*
- HA % vehicle [7]: 82.4%
- TD % vehicle [7]: 59.4%
- HA (horizontal activity) ([7]; five-minute period): 1125.6 ± 114.5
- TD (total distance) ([7]; five-minute period): 290 ± 48.4
- action on ryanodine receptor-channel complex [8]: antagonist of the ryanodine receptor-channel complex

SMILES: CNC[C@H](O)c1cccc(O)c1 [PE, phenylephrine]
- Mean pain score ([3]; PE 100 ng/kg alone): 11.3 ± 0.9

SMILES: CS(=O)(=O)NC(=O)CCC/C=C\C[C@H]1C(=O)C[C@@H](O)[C@@H]1/C=C/[C@@H](O)COc1ccccc1 [Sulprostone]
- Mean pain score ([2]; Sulprostone (I.P) 300 ng/kg alone, total score, maximum 16): 14.0 ± 0.5

SMILES: CN[C@H](CC(=O)O)C(=O)O [NMDA]
- Mean pain score ([4]; NMDA 100 ng intrathecal alone): 14.2 ± 1.1
